The subject of one assay is ARPE-19 cells. The assay can be described thus: UOS-induced apoptosis in ARPE-19 cells (Hoechst-positive pyknotic cells). The assay is classed as cell-based, human. As to conditions: 1 μM, RPE cells undergoing UOS. The method, then:
FIGS. 6A and 6B depicts immunostaining of primary human RPE cells using specific markers ZO-1 (Zona occludens-1), RPE65, MITF (Micro-ophtalmia-associated Transcription Factor) and β-catenin, as well as light microscopy depicting primary human RPE cell morphology at different passages in culture. ARPE-19 cells were grown and maintained in T-75 mM flasks in DMEM F-12 medium containing 10% FBS and incubated at 37° C. with a constant supply of 5% CO2. Cells at 75-80% confluence (72 h growth in DMEM/F12+10% FBS) in 6-well plates were serum-starved for 8 h before exposure. The serum-starved cells were treated with TNF-α (Sigma-Aldrich, St. Louis, Mo.) (10 ng/ml) and H2O2 (600 μM) to induce oxidative stress and challenged with increasing concentrations (50-500 nM) of VLC-PUFA (C32:6n3 and C34:6n3) simultaneously with oxidative stress for 16 h (apoptosis) and 6 h (Western-blot) before detection of apoptosis and harvesting for protein analysis. In some experiments, DHA at a concentration of 100 nM and 15-LOX-1 inhibitor PD146176 at a concentration of 1 μM was added to treat the RPE cells under stress. Cell extracts were made and protein concentrations adjusted by Bio-Rad (Hercules, Calif.) protein reagent and used for Western blot analysis. To assess cell death, hRPE and ARPE-19 cells were fixed with methanol for 15 mins, washed with 1×PBS then loaded with 2 μM Hoechst dissolved in a Locke's solution (Promega) and incubated for another 15 mins before imaging. Cells were then viewed by using a Zeiss LSM 510 confocal microscope under UV fluorescence. Images were recorded and cell apoptosis was assessed by using an automated unbiased method.

The test system of a further assay is ARPE-19 cells under UOS. The assay can be described thus: Western blot of pro-survival and pro-apoptotic proteins in RPE cells under UOS. Type of assay: cell-based, human. As to conditions: for Prohibitin (type-1) expression: sodium salts and methyl ester forms, concentration-dependent 100-200 nM; for pro-apoptotic Bax / pro-apoptotic Bid / pro-apoptotic Bim: sodium salts or methyl esters. As for the experimental part: ARPE19 cells at 75-80% confluence (72 h growth in DMEM/F12+10% FBS) in 6-well plates were serum-starved for 8 h before exposure. The serum-starved cells were treated with TNF-α (Sigma-Aldrich, St. Louis, Mo.) (10 ng/ml) and H2O2 (600 μM) to induce oxidative stress and challenged with increasing concentrations (50-500 nM) of VLC-PUFA (C32:6n3 and C34:6n3) simultaneously with oxidative stress for 16 h (apoptosis) and 6 h (Western-blot) before detection of apoptosis and harvesting for protein analysis. In some experiments, DHA at a concentration of 100 nM and 15-LOX-1 inhibitor PD146176 at a concentration of 1 μM was added to treat the RPE cells under stress. Cell extracts were made and protein concentrations adjusted by Bio-Rad (Hercules, Calif.) protein reagent and used for Western blot analysis.
Bcl-2 family proteins, SIRT1 and Proinhibitin (type-1), and Iduna proteins were analyze by Western blot analysis. In brief, 20-25 μg equivalents of each cell extracts were subject to electrophoresis on a 4-12% gel (Promega) at 125 V for 2 h. The proteins were transferred to nitrocellulose membrane by I-blot transfer apparatus. The membranes were subjected to treatment with primary antibodies specific for Bcl-2, Bcl-xL, Bax, Bid, Bim, SIRT1 and Prohibitin (type-1) (Santa Cruz Biotechnology) and Iduna antibody (Neuro-Mab Lab, UCLA, Los Angeles, Calif.) overnight at 4° C. and probed for 45 mins with secondary antibody, goat anti-mouse Ig:horseradish peroxidase, and horseradish peroxidase-conjugated anti-biotin antibody, and then proteins were evaluated by using an ECL kit (Amersham).

A further assay deals with primary human RPE cells. Briefly: UOS-induced cell death in primary human RPE cells (Hoechst staining). The assay is classed as cell-based. Conditions: NPD1 200 nM, 16 h; H2O2 (800 μM) alone 50% cell death. As for the experimental part:
Primary human retinal pigment epithelia (RPE) cells, prepared from donor eyes without eye pathology, were plated and transformed after passage eight. Cells were cultured in T75 flasks in MEM medium containing 10% FBS, 5% NCS, MEM-NEAA (ThermoFisher Scientific, Waltham, Mass.), 1× penicillin/streptomycin and 10 ng/ml FGF at 37° C. 5% CO2, 99% relative humidity for 24-48 h followed by a 24-h incubation with 10 μM free 32:6 and 34:6 fatty acid mixture.
For cell viability assay experiments hRPE cells were treated concomitantly with NPD1 (200 nM), 32-6, 34-6 (3 μM each) fatty acids or both 32-6 and 34-6 simultaneously. The hRPE medium was supplemented with 3 μM of 32-6 and 34-6 for the entire duration of the experiment. 15 lox-1 inhibitor (10 μM) was added to the cells 1 hour prior the OS induction and kept throughout the experiment. Cells were fixed with 4% PFA and stained with Hoescht.
To assess cell death, hRPE and ARPE-19 cells were fixed with methanol for 15 mins, washed with 1×PBS then loaded with 2 μM Hoechst dissolved in a Locke's solution (Promega) and incubated for another 15 mins before imaging. Cells were then viewed by using a Zeiss LSM 510 confocal microscope under UV fluorescence. Images were recorded and cell apoptosis was assessed by using an automated unbiased method.

Assay [1] concerns cerebral-cortical mixed neuronal cells and hippocampal neurons. The assay can be described thus: NMDA excitotoxicity of neurons in culture, cell viability. Type of assay: cell-based, rat. The source says:
Primary cultures of cortical and hippocampal neurons were harvested from 18-day-old embryos (E18) taken from timed-pregnant, two-month-old Sprague-Dawley (SD) rats (Charles River Lab., Wilmington, Mass.). Briefly, timed-pregnant SD rats were euthanized and embryos were collected in sterile conditions. Embryonic brains were dissected out by forceps on ice and placed in a petri dish containing ice-cold Hank's Balanced Salt Solution (HBSS) (GIBCO). Meninges were removed under a dissecting microscope and cortical tissues were chopped into small pieces with micro-spring scissors. These tissues were transferred to 15 ml tubes containing trypsin-EDTA (0.025% in HBSS) and DNase I. The tubes were incubated in 37° C. chamber for 15 mins and were agitated every 5 mins. After stopping the trypsinization with 5 ml 10% FBS, these tissues were triturated 15 times with a fire polished Pasteur pipet. Cell clumps were left to settle for 2 mins and the supernatant was transferred to a 15 ml Eppendorf tube. The supernatant was filtered through a 70 μm pore-sized filter (Corning cell strainer) and centrifuged for 5 mins at 1000 rpm. The cells were then resuspended in Neurobasal medium (GIBCO) containing 2% B27 (GIBCO) and 2% N2 (GIBCO) supplements, along with 0.5 mM glutamine, 50 U/ml penicillin/streptomycin.
Cells were counted using a Neubauer hemocytometer. 1×10^6 cells were seeded on poly-D-lysine-coated 12 well cell culture dish (CORNING) and cultured in incubator (37° C., 5% CO2). Culture medium was first replaced after 24 h, then half of the medium was replaced with fresh medium every three days. As a result, approximately, 90% purity of neurons was obtained as determined by class-III-β tubulin, GFAP and Hoechst 33258 staining. Cells were maintained in culture for about 2 weeks until they were exposed to uncompensated oxidative stress, OGD, or NMDA excitotoxicity.
After 90 mins of OGD exposure, cells were returned to the original medium (Neurobasal medium (GIBCO) containing 2% B27 (GIBCO) and 2% N2 (GIBCO) supplements, along with 0.5 mM glutamine, 50 U/ml penicillin/streptomycin) and placed in a normoxic chamber (37° C., 5% CO2) for 2 h. Then the medium was changed with medium containing either ELV-N32 or ELV-N34 [500 nM] and maintained in a normoxic chamber (37° C., 5% CO2) for 12 h, after which cells were sampled and assayed for cell viability using different methods as previously described (25-28). Cerebral cortical mixed neuronal cells or hippocampal cells in culture were exposed to either NMDA or uncompensated oxidative stress (UOS) for 12 h by addition of either NMDA (25 μM, 50 μM, or 100 μM) concentration or by the addition of TNFα (10 ng/mL) and H2O2 (50 μM, 100 μM, or 200 μM). Cell viability and neuroprotection in the presence of ELV-N32, ELV-N34, 32:6, or 34:6 were assayed after 12 h.
Cells were washed with 1× Dulbecco's Phosphate Buffered Saline (DPBS) containing no calcium or magnesium (GIBCO) and fixed for 10 mins using ice-cold 4% paraformaldehyde (PFA) followed by 15 mins incubation in 100% methanol. Cells were washed with 1× Phosphate Buffered Saline (PBS) pH 7.4 (GIBCO) and incubated in PBS containing 20 μM Hoechst 33258 (Molecular Probes) for 20 mins. Cells were then washed 3 times with 1×PBS and stored in 1×PBS at 4° C. until they were imaged for microscopy.
One 4×4 tile mosaic was acquired from the center of each well using a Zeiss 510 Meta laser confocal microscope and LSM 510 Meta software. Images were imported into image analysis software ImageJ (National Institutes of Health, Bethesda, Md.) and batch processed using custom macros. An Otsu auto threshold was applied to each image of Hoechst-stained nuclei, and the area of each detected object was recorded. Objects with areas <10 μm^2 were excluded from analysis. To estimate percentage non-pyknotic nuclei, a size cutoff value was chosen above which objects were assumed to be non-pyknotic. […]

For the molecule `c1ccc2c(c1)SCc1c-2[nH]c2ccccc12` [PD146176, reference compound], the “effect of 15-LOX-1 inhibitor on ELV-mediated inhibition of apoptosis” value in the assay on ARPE-19 cells is “compensate for ELV-mediated inhibition of apoptosis”. In the assay with ARPE-19 cells under UOS (1 μM, ARPE-19 cells undergoing UOS), the “effect of 15-LOX-1 inhibitor on ELV-induced upregulation” value is listed as “blocked these effects”.
Regarding `CC/C=C\C[C@H](O)\C=C/C=C/C=C/[C@H](O)C/C=C\C/C=C\CCC(=O)O` [NPD1, 10R,17S-dihydroxy-docosa-4Z,7Z,11E,13E,15Z,19Z-hexaenoic acid], the apoptosis with primary human RPE cells came out at 11%.
On to `CC/C=C\C[C@H](O)\C=C/C=C/C=C/[C@H](O)C/C=C\C/C=C\CCCCCCCCCCCCC(=O)O` [ELV-N32, (14Z,17Z,20R,21E,23E,25Z,27S,29Z)-20,27-dihydroxydo-triaconta-14,17,21,23,25,29-hexaenoic acid], for which, in the assay with ARPE-19 cells under UOS, the “Prohibitin (type-1) expression” value was “upregulated”, the “pro-apoptotic Bax” value was “decreased”, the “pro-apoptotic Bid” value was “decreased” and the “pro-apoptotic Bim” value is given as “decreased”.
`CC/C=C\C[C@H](O)\C=C/C=C/C=C/[C@H](O)C/C=C\C/C=C\CCCCCCCCCCCCCCC(=O)O` [ELV-N34, (16Z,19Z,22R,23E,25E,27Z,29S,31Z)-22,29-dihydroxytetra-triaconta-16,19,23,25,27,31-hexaenoic acid]: in the assay on ARPE-19 cells under UOS, the “Prohibitin (type-1) expression” value is “upregulated”, the “pro-apoptotic Bax” value is “decreased”, the “pro-apoptotic Bid” value is recorded as “decreased” and the “pro-apoptotic Bim” value is given as “decreased”. The NMDA-induced neuronal death entry in assay [1] (ELV (Na or Me) 200 nM or 500 nM added along with NMDA 25, 50 or 100 μM, 12 h) is given as “compensated for”.
MK801 maleate [reference compound]: in assay [1] (10 μM), the NMDA excitotoxicity entry is “overcome”.

These data come from patent publication US11684599B2, “Very-long-chain polyunsaturated fatty acids, elovanoid hydroxylated derivatives, and methods of use” (Board of Supervisors of Louisiana State University and …, priority 2017, dated 2023).
